Assay results reported in patent US20230085307A1, “PYRIDAZINONE COMPOUND AND HERBICIDE” (NISSAN CHEMICAL CORPORATION, priority 2019, published 2023).

How the values were obtained:
[1] = test system: velvetleaf; test: Test Example 5: herbicidal effect by foliage application, plastic box (Table 20, symbol M); assay type: in vivo, velvetleaf (Abutilon theophrasti); conditions: foliage application, 3 weeks after application
Outline: (§1)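 Plants were sown into sterilized diluvial soil under about 1.5 cm cover and kept in a greenhouse at 25° C. to 30° C. Fourteen days on, foliage received an even spray of the diluted emulsion. Herbicidal or crop effect was judged three weeks afterwards.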

[2] = test system: Chinese sprangletop; test: Test Example 3: herbicidal effect by foliage application, Wagner pot (Table 18, symbol D); assay type: in vivo, chinese sprangletop (Leptochloa chinensis)
Outline: (§2)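 Plants were sown in alluvial soil held under 0.1–0.5 cm standing water and grown 14 days in a greenhouse at 25–30 °C. An emulsifiable formulation, water-diluted to the set dose, was then sprayed onto the foliage, and effects were scored three weeks later using previously defined criteria.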

[3] = test system: green foxtail; test: Test Example 4: herbicidal effect by soil treatment (Table 19, symbol G); assay type: in vivo, green foxtail (Setaria viridis)
Outline: (§3)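 Pre-emergence style soil spray: seeds under ~1.5 cm sterilized diluvial soil received a uniform coat of emulsion diluted to the predetermined herbicide amount. Greenhouse 25–30° C; readout at week three on previously defined criteria.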

[4] = test system: velvetleaf; test: Test Example 4: herbicidal effect by soil treatment (Table 19, symbol M); assay type: in vivo, velvetleaf (Abutilon theophrasti)
Outline: as §3

[5] = test system: rice flat sedge; test: Test Example 3: herbicidal effect by foliage application, Wagner pot (Table 18, symbol E); assay type: in vivo, rice flat sedge (Cyperus iria)
Outline: as §2

[6] = test system: blackgrass; test: Test Example 5: herbicidal effect by foliage application, plastic box (Table 20, symbol J); assay type: in vivo, blackgrass (Alopecurus myosuroides); conditions: foliage application, 3 weeks after application
Outline: as §1

[7] = test system: redroot pigweed; test: Test Example 4: herbicidal effect by soil treatment (Table 19, symbol N); assay type: in vivo, redroot pigweed (Amaranthus retroflexus)
Outline: as §3

[8] = test system: persian speedwell; test: Test Example 5: herbicidal effect by foliage application, plastic box (Table 20, symbol R); assay type: in vivo, Persian speedwell (Veronica persica); conditions: foliage application, 3 weeks after application
Outline: as §1

[9] = test system: barnyard grass; test: Test Example 4: herbicidal effect by soil treatment (Table 19, symbol H); assay type: in vivo, barnyard grass (Echinochloa crus-galli)
Outline: as §3

[10] = test system: lambsquarters; test: Test Example 4: herbicidal effect by soil treatment (Table 19, symbol O); assay type: in vivo, lambsquarters (Chenopodium album)
Outline: as §3

[11] = test system: chickweed; test: Test Example 4: herbicidal effect by soil treatment (Table 19, symbol P); assay type: in vivo, common chickweed (Stellaria media)
Outline: as §3

[12] = test system: persian speedwell; test: Test Example 4: herbicidal effect by soil treatment (Table 19, symbol R); assay type: in vivo, Persian speedwell (Veronica persica)
Outline: as §3

[13] = test system: southern crabgrass; test: Test Example 4: herbicidal effect by soil treatment (Table 19, symbol F); assay type: in vivo, southern crabgrass (Digitaria ciliaris)
Outline: as §3

[14] = test system: windgrass; test: Test Example 5: herbicidal effect by foliage application, plastic box (Table 20, symbol L); assay type: in vivo, windgrass (Apera spica-venti); conditions: foliage application, 3 weeks after application
Outline: as §1

[15] = test system: Italian ryegrass; test: Test Example 4: herbicidal effect by soil treatment (Table 19, symbol K); assay type: in vivo, Italian ryegrass (Lolium multiflorum)
Outline: as §3

[16] = test system: barnyard grass; test: Test Example 5: herbicidal effect by foliage application, plastic box (Table 20, symbol H); assay type: in vivo, barnyard grass (Echinochloa crus-galli); conditions: foliage application, 3 weeks after application
Outline: as §1

[17] = test system: lambsquarters; test: Test Example 5: herbicidal effect by foliage application, plastic box (Table 20, symbol O); assay type: in vivo, lambsquarters (Chenopodium album); conditions: foliage application, 3 weeks after application
Outline: as §1

[18] = test system: windgrass; test: Test Example 4: herbicidal effect by soil treatment (Table 19, symbol L); assay type: in vivo, windgrass (Apera spica-venti)
Outline: as §3

[19] = test system: blackgrass; test: Test Example 4: herbicidal effect by soil treatment (Table 19, symbol J); assay type: in vivo, blackgrass (Alopecurus myosuroides)
Outline: as §3

[20] = test system: barnyard grass; test: Test Example 3: herbicidal effect by foliage application, Wagner pot (Table 18, symbol H); assay type: in vivo, barnyard grass (Echinochloa crus-galli)
Outline: as §2

[21] = test system: Japanese bulrush; test: Test Example 1: herbicidal activity, application before weed generation under submerged conditions (Table 16, symbol B); assay type: in vivo, Japanese bulrush (Schoenoplectus juncoides)
Outline: (§4)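 Alluvial soil was flooded to 4 cm depth, weed seeds were sown mixed and 2.5-leaf rice seedlings were transplanted. On sowing day, the compound's emulsion, diluted in water to a set dose, was applied to the water surface. Plants grew at 25–30 °C and were scored 0–5 after three weeks.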

[22] = test system: oval-leafed pondweed; test: Test Example 1: herbicidal activity, application before weed generation under submerged conditions (Table 16, symbol C); assay type: in vivo, oval-leafed pondweed (Monochoria vaginalis)
Outline: as §4

[23] = test system: late watergrass; test: Test Example 1: herbicidal activity, application before weed generation under submerged conditions (Table 16, symbol A); assay type: in vivo, late watergrass (Echinochloa oryzicola)
Outline: as §4

[24] = test system: Italian ryegrass; test: Test Example 5: herbicidal effect by foliage application, plastic box (Table 20, symbol K); assay type: in vivo, Italian ryegrass (Lolium multiflorum); conditions: foliage application, 3 weeks after application
Outline: as §1

[25] = test system: green foxtail; test: Test Example 5: herbicidal effect by foliage application, plastic box (Table 20, symbol G); assay type: in vivo, green foxtail (Setaria viridis); conditions: foliage application, 3 weeks after application
Outline: as §1

[26] = test system: southern crabgrass; test: Test Example 5: herbicidal effect by foliage application, plastic box (Table 20, symbol F); assay type: in vivo, southern crabgrass (Digitaria ciliaris); conditions: foliage application, 3 weeks after application
Outline: as §1

[27] = test system: wild oat; test: Test Example 4: herbicidal effect by soil treatment (Table 19, symbol I); assay type: in vivo, wild oat (Avena fatua)
Outline: as §3

[28] = test system: wild oat; test: Test Example 5: herbicidal effect by foliage application, plastic box (Table 20, symbol I); assay type: in vivo, wild oat (Avena fatua); conditions: foliage application, 3 weeks after application
Outline: as §1

## CC=CCOc1ccc(-c2sc3ccccc3c2-c2c(O)c(C)nn(C)c2=O)cc1 [1-211]
[1]; 80 g/ha
  effect on velvetleaf (M): 4 (Herbicidal rate of 70% or more and less than 90%)
[2]; 80 g/ha
  herbicidal effect on D (Chinese sprangletop), rating 0-5: 4 (Herbicidal rate of 70% or more and less than 90%)
[3]; AAH 80 g/ha
  G: green foxtail, herbicidal effect rating: 0 (Herbicidal rate of 5% or less (almost no effect))
[4]; AAH 80 g/ha
  M: velvetleaf, herbicidal effect rating: 0 (Herbicidal rate of 5% or less (almost no effect))
[5]; 80 g/ha
  herbicidal effect on E (rice flat sedge), rating 0-5: 4 (Herbicidal rate of 70% or more and less than 90%)
[6]; 80 g/ha
  effect on blackgrass (J): 2 (Herbicidal rate of 20% or more and less than 40%)
[7]; AAH 80 g/ha
  N: redroot pigweed, herbicidal effect rating: 3 (Herbicidal rate of 40% or more and less than 70%)
[8]; 80 g/ha
  effect on persian speedwell (R): 5 (Herbicidal rate of 90% or more (almost completely withered))
[9]; AAH 80 g/ha
  H: barnyard grass, herbicidal effect rating: 0 (Herbicidal rate of 5% or less (almost no effect))
[10]; AAH 80 g/ha
  O: lambsquarters, herbicidal effect rating: 0 (Herbicidal rate of 5% or less (almost no effect))
[11]; AAH 80 g/ha
  P: chickweed, herbicidal effect rating: 0 (Herbicidal rate of 5% or less (almost no effect))
[12]; AAH 80 g/ha
  R: persian speedwell, herbicidal effect rating: 0 (Herbicidal rate of 5% or less (almost no effect))
[13]; AAH 80 g/ha
  F: southern crabgrass, herbicidal effect rating: 0 (Herbicidal rate of 5% or less (almost no effect))
[14]; 80 g/ha
  effect on windgrass (L): 0 (Herbicidal rate of 5% or less (almost no effect))
[15]; AAH 80 g/ha
  K: Italian ryegrass, herbicidal effect rating: 0 (Herbicidal rate of 5% or less (almost no effect))
[16]; 80 g/ha
  effect on barnyard grass (H): 3 (Herbicidal rate of 40% or more and less than 70%)
[17]; 80 g/ha
  effect on lambsquarters (O): 5 (Herbicidal rate of 90% or more (almost completely withered))
[18]; AAH 80 g/ha
  L: windgrass, herbicidal effect rating: 0 (Herbicidal rate of 5% or less (almost no effect))
[19]; AAH 80 g/ha
  J: blackgrass, herbicidal effect rating: 0 (Herbicidal rate of 5% or less (almost no effect))
[20]; 80 g/ha
  herbicidal effect on H (barnyard grass), rating 0-5: 4 (Herbicidal rate of 70% or more and less than 90%)
[21]; 80 g/ha applied herbicide
  Herbicidal effect on B: Japanese bulrush (grade 0-5): 3 (Herbicidal rate of 40% or more and less than 70%)
[22]; 80 g/ha applied herbicide
  Herbicidal effect on C: oval-leafed pondweed (grade 0-5): 3 (Herbicidal rate of 40% or more and less than 70%)
[23]; 80 g/ha applied herbicide
  Herbicidal effect on A: late watergrass (grade 0-5): 5 (Herbicidal rate of 90% or more (almost completely withered))
[24]; 80 g/ha
  effect on Italian ryegrass (K): 3 (Herbicidal rate of 40% or more and less than 70%)
[25]; 80 g/ha
  effect on green foxtail (G): 5 (Herbicidal rate of 90% or more (almost completely withered))
[26]; 80 g/ha
  effect on southern crabgrass (F): 3 (Herbicidal rate of 40% or more and less than 70%)
[27]; AAH 80 g/ha
  I: wild oat, herbicidal effect rating: 0 (Herbicidal rate of 5% or less (almost no effect))
[28]; 80 g/ha
  effect on wild oat (I): 0 (Herbicidal rate of 5% or less (almost no effect))

## Cc1nn(C)c(=O)c(-c2c(-c3ccc(C(C)C)cc3)sc3ccc(F)cc23)c1O [2-014]
[1]; 320 g/ha
  effect on velvetleaf (M): 5 (Herbicidal rate of 90% or more (almost completely withered))
[2]; 320 g/ha
  herbicidal effect on D (Chinese sprangletop), rating 0-5: 5 (Herbicidal rate of 90% or more (almost completely withered))
[3]; 320 g/ha
  herbicidal effect rating, G: green foxtail: 2 (Herbicidal rate of 20% or more and less than 40%)
[4]; 320 g/ha
  herbicidal effect rating, M: velvetleaf: 3 (Herbicidal rate of 40% or more and less than 70%)
[5]; 320 g/ha
  herbicidal effect on E (rice flat sedge), rating 0-5: 5 (Herbicidal rate of 90% or more (almost completely withered))
[6]; 320 g/ha
  effect on blackgrass (J): 4 (Herbicidal rate of 70% or more and less than 90%)
[7]; 320 g/ha
  herbicidal effect rating, N: redroot pigweed: 5 (Herbicidal rate of 90% or more (almost completely withered))
[8]; 320 g/ha
  effect on persian speedwell (R): 5 (Herbicidal rate of 90% or more (almost completely withered))
[9]; 320 g/ha
  herbicidal effect rating, H: barnyard grass: 4 (Herbicidal rate of 70% or more and less than 90%)
[10]; 320 g/ha
  herbicidal effect rating, O: lambsquarters: 5 (Herbicidal rate of 90% or more (almost completely withered))
[11]; 320 g/ha
  herbicidal effect rating, P: chickweed: 4 (Herbicidal rate of 70% or more and less than 90%)
[12]; 320 g/ha
  herbicidal effect rating, R: persian speedwell: 5 (Herbicidal rate of 90% or more (almost completely withered))
[13]; 320 g/ha
  herbicidal effect rating, F: southern crabgrass: 0 (Herbicidal rate of 5% or less (almost no effect))
[14]; 320 g/ha
  effect on windgrass (L): 5 (Herbicidal rate of 90% or more (almost completely withered))
[15]; 320 g/ha
  herbicidal effect rating, K: Italian ryegrass: 4 (Herbicidal rate of 70% or more and less than 90%)
[16]; 320 g/ha
  effect on barnyard grass (H): 5 (Herbicidal rate of 90% or more (almost completely withered))
[17]; 320 g/ha
  effect on lambsquarters (O): 5 (Herbicidal rate of 90% or more (almost completely withered))
[18]; 320 g/ha
  herbicidal effect rating, L: windgrass: 3 (Herbicidal rate of 40% or more and less than 70%)
[19]; 320 g/ha
  herbicidal effect rating, J: blackgrass: 0 (Herbicidal rate of 5% or less (almost no effect))
[20]; 320 g/ha
  herbicidal effect on H (barnyard grass), rating 0-5: 5 (Herbicidal rate of 90% or more (almost completely withered))
[21]; 320 g/ha applied herbicide
  Herbicidal effect on B: Japanese bulrush (grade 0-5): 0 (Herbicidal rate of 5% or less (almost no effect))
[22]; 320 g/ha applied herbicide
  Herbicidal effect on C: oval-leafed pondweed (grade 0-5): 0 (Herbicidal rate of 5% or less (almost no effect))
[23]; 320 g/ha applied herbicide
  Herbicidal effect on A: late watergrass (grade 0-5): 3 (Herbicidal rate of 40% or more and less than 70%)
[24]; 320 g/ha
  effect on Italian ryegrass (K): 5 (Herbicidal rate of 90% or more (almost completely withered))
[25]; 320 g/ha
  effect on green foxtail (G): 5 (Herbicidal rate of 90% or more (almost completely withered))
[26]; 320 g/ha
  effect on southern crabgrass (F): 5 (Herbicidal rate of 90% or more (almost completely withered))
[27]; 320 g/ha
  herbicidal effect rating, I: wild oat: 0 (Herbicidal rate of 5% or less (almost no effect))
[28]; 320 g/ha
  effect on wild oat (I): 2 (Herbicidal rate of 20% or more and less than 40%)
